# Experimental data as given in patent US20250345356A1, “TIRAPAZAMINE COMPOSITIONS AND METHODS” (priority 2024, published 2025).
# Where “and” joins values, the source holds several entries; their conditions need not be identical. Equal entries are not always repeated.
# Columns and labels:
# [1] = Activation energy of degradation from stability studies; format: physicochemical; conditions: formulation without HP-beta-CD, long-term stability results
# Protocol: Activation energy (Ea) is the least possible energy required to start a chemical reaction. Molecules need some kinetic energy or velocity to collide with other molecules to start a reaction. No reaction will take place if the collision doesn't happen, or if the molecules don't have enough kinetic energy. The energy needed to initiate the reaction is known as Activation energy.
# The activation energy (Ea) of a reaction is measured in joules (J), kilojoules per mole (kJ/mol) or kilocalories per mole (kcal/mol)
# The Activation Energy Formula is as follows: […]
# Where A is a constant, k is the rate constant, Ea is the activation energy of degradation in kcal/mol, R is the universal gast constant (1.98 calKmole) and I is the absolute temperature (° K).
# In the formulation without HP-beta-CD, Ea of TPZ is calculated as 35 kcal/mole based on the long-term stability results. For the HP-beta-CD new formulation, Ea of the complex is calculated at 44 kcal/mole using a new formulation methodology called “Accelerated Stability Assessment Program (ASAP)” that can be executed in a few weeks with a few storage conditions and temperature ranging from 40° C. to 70° C. inclusive. The higher the activation energy, the more kinetically stable the complex is.
# [2] = mice, intravenous administration; cited from earlier work
# HCC = conditions: cited from earlier work
smiles,measurement,setting,value
"Nc1n[n+]([O-])c2ccccc2[n+]1[O-] [tirapazamine, 3-amino-1,2,4-benotriazine-1,4-di-N-oxide]",activation energy of degradation (Ea),[1],35 kcal/mol
same,LD10,[2],294 mg/kg
same,LD50,[2],303 mg/kg
same,necrosis in the HCC within the territory of HAL,"HCC; Day 1 post-treatment, tirapazamine 3 mg/kg, doxorubicin 10 mg/kg, transient left HAL",more than 99%
same,necrosis of HCCs in the territory of the left HAL,"HCC; Day 7, 3 mg/kg with left HAL, H&E",90-99%
same,"tumor necrosis, individual mice","HCC; Day 7, three mice, 3 mg/kg with left HAL, 3 mg/kg",90% and 99% (2×)
same,necrosis in the tumor-free part of the left lobe of the liver,"HCC; Day 7, with left HAL",no evidence of necrosis
